# In patent publication US20240398781A1, “SPIROCYCLIC CYCLIC MODULATORS OF CHOLESTEROL BIOSYNTHESIS AND THEIR USE FOR PROMOTING REMYELINATION” (GENENTECH, INC., priority 2021, published 2024):
# Key:
# [1] = system: EBP (zymostenol accumulation in EpiSC-derived OPCs); assay: GC/MS-based sterol profiling, zymostenol accumulation in OPCs; format: cell-based, mouse; conditions: Mus musculus, 24 h, EpiSC-derived OPCs, 24 hr treatment, 8 doses from 0.15 nM to 333 nM; read-out: Zymostenol GCMS EC50
# Procedure: To assess effects of treatments on OPCs, all treatments were assayed in two or more independent platings of epiblast stem cell-derived OPCs ([…]-derived OPCs were obtained using in vitro differentiation protocols and culture conditions described previously (Najm et al, 2011, Nature Methods). OPCs were expanded and frozen down in aliquots. OPCs were thawed into growth conditions for at least one passage before use in further assays. Sterols were monitored using a modified Folch wash protocol (Hubler et al, 2018, Nature). EpiSC-derived OPCs were plated at 100,000 cells per well in PO- and laminin-coated 96-well plates in N2B27 media without growth factors. After 24 hours, cells were rinsed with saline and plates were frozen. Cholesterol-d7 standard was then added to each well before drying under nitrogen stream and derivatization with 55 μl of bis(trimethylsilyl) trifluoroacetamide. After derivatization, 2 μl were analyzed by gas chromatography/mass spectrometry using an Agilent 5973 Network Mass Selective Detector equipped with a 6890 gas chromatograph system and a HP-5MS capillary column (30 m×0.25 mm×0.25 mm). Samples were analyzed in full scan mode using electron impact ionization; ion fragment peaks were integrated to calculate sterol abundance, and quantitation was relative to cholesterol-d7. […] All standards were obtained from Avanti Polar Lipids unless otherwise indicated. Calibration curves were generated by injecting varying concentrations of sterol standards and maintaining a fixed amount of cholesterol-D7. For normalized zymostenol accumulation results, the total amount of zymostenol measured after drug treatment was divided by the total amount of zymostenol accumulated after 24 hr treatment with 100 nM positive control reference.
# EpiSC-derived OPCs = assay: In vitro phenotypic screening of OPCs (MBP staining, high-content imaging); format: cell-based, mouse; conditions: Mus musculus, 72 h, percentage of MBP+ oligodendrocytes, 3 days, 0.5 nM to 1000 nM; read-out: OPC EC50
# Procedure: To assess effects of treatments on OPCs, all treatments were assayed in two or more independent platings of epiblast stem cell-derived OPCs (EpiSC). EpiSC-derived OPCs were obtained using in vitro differentiation protocols and culture conditions described previously (Najm et al, 2011, Nature Methods). OPCs were expanded and frozen down in aliquots. OPCs were thawed into growth conditions for at least one passage before use in further assays.
# EpiSC-derived OPCs were grown and expanded in poly-L-ornithine (PO) and laminin-coated flasks in N2B27 media (DMEM/F12 (Gibco), N2-MAX (R&D Systems), B-27 (ThermoFisher), and GlutaMax (Gibco)) supplemented with FGF2 ([…], R&D systems, 233-FB-025) and PDGF-AA ([…], R&D systems, 233-AA-050) before harvesting for experiments. The cells were seeded onto poly-L-ornithine or poly-D-lysine coated CellCarrier Ultra plates (PerkinElmer) coated with laminin (Sigma, L2020) at a density of 150,000/cm^2 in N2B27 media without growth factors. For dose-response testing, a 1000× compound stock in dimethyl sulphoxide (DMSO) was added to assay plates, resulting in 8-point dose curves with final concentrations between 1000 nM and 0.5 nM. Positive controls and DMSO vehicle controls were included in each assay plate. Cells were incubated under standard conditions (37° C., 5% CO2) for 3 days and fixed with 4% paraformaldehyde (PFA) in phosphate buffered saline (PBS) for 20 min. Fixed plates were washed with PBS, permeabilized with 0.1% Triton X-100, and blocked with 10% donkey serum (v/v) in PBS for 40 min. Then, cells were labelled with MBP antibodies (Abcam, ab7349; 1:200) for 2 h at room temperature, washed with PBS, and stained with Alexa Fluor conjugated secondary antibodies (1:500) for 45 min. Nuclei were visualized by DAPI staining (Sigma; 1 μg/ml), followed by further PBS washes.
# Cells and cell culture plates were imaged on the Operetta High Content Imaging and Analysis system (PerkinElmer). Analysis (PerkinElmer Harmony and Columbus software) began by identifying intact nuclei stained by DAPI. The peri-nuclear region of each cell was then cross-referenced with the mature myelin protein (MBP) stain to identify oligodendrocyte nuclei, and from this the percentage of oligodendrocytes was calculated. EC50 values were calculated using The Levenberg-Marquardt algorithm to fit a Hill equation to dose-response data (0.5 nM to 1000 nM).
# [2] = molecular target: human emopamil binding protein and human 7-dehydrocholesterol reductase co-expressing cells (hEBP-DHCR7 membrane) (Homo sapiens (Human), UniProt Q15125); assay: Radioligand filter binding assay on hEBP-DHCR7 membrane; conditions: [3H]-(S)-6-(2-Methyl-3-(6-(trifluoromethyl)pyridin-3-yl)propyl)-2-thia-6-azaspiro[3.4]octane 2,2-dioxide radioligand, HEK293 membrane co-expressing hEBP and hDHCR7
# Chain of human emopamil binding protein and human 7-dehydrocholesterol reductase co-expressing cells (hEBP-DHCR7 membrane) (Q15125 whole entry): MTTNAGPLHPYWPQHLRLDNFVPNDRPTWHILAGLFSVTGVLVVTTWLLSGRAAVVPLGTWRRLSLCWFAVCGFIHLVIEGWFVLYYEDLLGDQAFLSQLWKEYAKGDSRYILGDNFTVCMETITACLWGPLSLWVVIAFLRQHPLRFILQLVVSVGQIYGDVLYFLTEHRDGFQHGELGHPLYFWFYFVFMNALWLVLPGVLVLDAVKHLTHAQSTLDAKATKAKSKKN
# Procedure: Membrane Preparation: human emopamil binding protein and human 7-dehydrocholesterol reductase co-expressing cells were generated by transient transfecting host human embryonic kidney (HEK) 293 cells with 2 DNA constructs containing each protein's coding sequence. Cells were suspension cultured at 37° C. with 5% CO2 in […] 293 Expression Medium (Thermofisher). Whole cell membrane was prepared by harvesting the cell pellet, adding cold membrane buffer (50 mM Tris, pH7.5, lx Roche COMPLETE EDTA-free protease inhibitor cocktail) 10 times volume of the cell pellets weight, lysing cell pellet on ice by using Dounce homogenizer, spinning at 200 g 4° C. for 15 min, collecting supernatant and spinning again at 25000 g 4° C. for 50 min, transferring pellet to Dounce homogenizer, re-suspending pellet by homogenizing in membrane buffer on ice to reach ˜25 mg/mL, then keeping whole cell membrane aliquots at −80° C.
# Compounds were prepared in a 96-well U bottom plate using an Echo550 machine and 10 mM compound DMSO stock solution, followed by an 8-dose 5-fold serial dilutions protocol with final testing compound concentration ranging from 0.06 to 5000 nM, with DMSO back fill to 100 nL/well and n=2. […] The UniFilter-96 GF/B plates were pre-treated by adding 50 μl/well of 0.3% (v/v) PEI to UniFilter-96 GF/B plates. The plates were sealed and incubated at 4° C. for 3 hrs. Then, the plates were washed with ice-cold assay buffer 3 times. The radioligand binding assay was prepared by adding assay buffer diluted hEBP-DHCR7 membrane at 66.7 μg/ml×150 μl/well into the 96-well compound plate to reach 10 μg membrane per well. Then, the assay buffer diluted [3H]—(S)-6-(2-Methyl-3-(6-(trifluoromethyl)pyridin-3-yl)propyl)-2-thia-6-azaspiro[3.4] octane 2,2-dioxide was added at 25 nM×50 μl/well. Following this, the plate was centrifuged at 1000 rpm for 30 secs. The plate was then sealed and agitated at 600 rpm at 22° C. for 5 min, and then incubated at 22° C. for 3 hrs. The incubation was stopped by transferring the binding solution to the pre-treated UniFilter-96 GF/B plate, vacuum filtrated, and then washed four times with ice-cold assay buffer. Following this, the plates were dried at 37° C. for 45 min. The plates were then sealed at the bottom. 40 μl/well of scintillation cocktail was added to the plates. A MicroBeta2 microplate counter was then used to read the plate and analyze the data. For reference and test compounds, the results are expressed as % Inhibition, using the normalization equation: N=100−100×(U−C2)/(C1−C2), where U is the unknown value, C1 is the average of high controls, and C2 is the average value of low controls. The IC50 was determined by fitting percentage of inhibition as a function of compound concentrations with Hill equation using XLfit. Results are expressed as hEBP-DHCR7 Ki (uM) in Table 4. Ki was calculated as described above. The asterix (*) indicates an isolated isomer or isolated group of isomers, but that the stereochemistry has not been assigned.
Structure (SMILES),EC50 [1] [nM],EC50 (EpiSC-derived OPCs) [nM],Ki [2] [nM]
"O=S1(=O)CC[C@@]2(CCCN([C@H]3CC[C@@H](c4ccc(C(F)(F)F)nc4)CC3)C2)C1 (single isomer, unassigned) [71A*]",6,19,–
"Cc1nc(C(F)(F)F)ccc1[C@H]1CC[C@@H](N2CCC3(C2)CS(=O)(=O)C3)CC1 [Compound 51B, 6-((1s,4s)-4-(2-methyl-6-(trifluoromethyl)pyridin-3-yl)cyclohexyl)-2-thia-6-azaspiro[3.4]octane 2,2-dioxide]",5.9,–,14
"O=S1(=O)CC2(CCN([C@H]3CC[C@@H](c4cccc(C(F)(F)F)n4)CC3)C2)C1 [Compound 62A, 6-((1s,4s)-4-(6-(trifluoromethyl)pyridin-2-yl)cyclohexyl)-2-thia-6-azaspiro[3.4]octane 2,2-dioxide]",45,–,23
"CCc1nc(C(F)(F)F)ccc1[C@H]1CC[C@@H](N2CCC3(C2)CS(=O)(=O)C3)CC1 [Compound 64B, 6-((1s,4s)-4-(2-ethyl-6-(trifluoromethyl)pyridin-3-yl)cyclohexyl)-2-thia-6-azaspiro[3.4]octane 2,2-dioxide]",3.2,–,12
"CC(C)c1nc(C(F)(F)F)ccc1[C@H]1CC[C@@H](N2CCC3(C2)CS(=O)(=O)C3)CC1 [Compound 65B, 6-((1s,4s)-4-(2-isopropyl-6-(trifluoromethyl)pyridin-3-yl)cyclohexyl)-2-thia-6-azaspiro[3.4]octane 2,2-dioxide]",2.8,–,8
"O=S1(=O)CC2(CCN([C@H]3CC[C@H](c4ccc(C(F)F)nc4)CC3)C2)C1 [Compound 67, 6-((1r,4r)-4-(6-(difluoromethyl)pyridin-3-yl)cyclohexyl)-2-thia-6-azaspiro[3.4]octane 2,2-dioxide]",30,–,180
"O=S1(=O)CC2(CCN([C@H]3CC[C@@H](c4ccc(F)c(F)c4)CC3)C2)C1 [Compound 70B, 6-((1s,4s)-4-(3,4-difluorophenyl)cyclohexyl)-2-thia-6-azaspiro[3.4]octane 2,2-dioxide]",19,–,6.7
"O=S1(=O)CC2(CCN([C@H]3CC[C@H](c4ncc(C(F)(F)F)cc4F)CC3)CC2)C1 [Compound 80A, 7-((1r,4r)-4-(3-Fluoro-5-(trifluoromethyl)pyridin-2-yl)cyclohexyl)-2-thia-7-azaspiro[3.5] nonane 2,2-dioxide]",11,–,67
"CC(C)(C)n1nc(C(F)(F)F)cc1[C@H]1CC[C@H](N2CCC3(CC2)CS(=O)(=O)C3)CC1 [Compound 85A, 7-((1r,4r)-4-(1-(tert-Butyl)-3-(trifluoromethyl)-1H-pyrazol-5-yl)cyclohexyl)-2-thia-7-azaspiro[3.5]nonane 2,2-dioxide]",8.1,–,15
"O=S1(=O)CC2(CCN([C@H]3CC[C@H](c4ccnc(C(F)(F)F)c4)CC3)CC2)C1 [Compound 90B, 7-((1r,4r)-4-(2-(trifluoromethyl)pyridin-4-yl)cyclohexyl)-2-thia-7-azaspiro[3.5]nonane 2,2-dioxide]",42,–,1290

# Next, values leading:
EC50 [1] [nM],EC50 (EpiSC-derived OPCs) [nM],Ki [2] [nM],Structure (SMILES)
85,–,21,"O=S1(=O)CC2(CCN([C@H]3CC[C@@H](c4ccnc(C(F)(F)F)c4)CC3)C2)C1 [Compound 60B, 6-((1s,4s)-4-(2-(trifluoromethyl)pyridin-4-yl)cyclohexyl)-2-thia-6-azaspiro[3.4]octane 2,2-dioxide]"
12,–,75,"O=S1(=O)CC2(CCN([C@H]3CC[C@H](c4cncc(C(F)(F)F)c4)CC3)C2)C1 [Compound 63A, 6-((1r,4r)-4-(5-(trifluoromethyl)pyridin-3-yl)cyclohexyl)-2-thia-6-azaspiro[3.4]octane 2,2-dioxide]"
289,–,66,"O=S1(=O)CC2(CCN([C@H]3CC[C@@H](c4cncc(C(F)(F)F)c4)CC3)C2)C1 [Compound 63B, 6-((1s,4s)-4-(5-(trifluoromethyl)pyridin-3-yl)cyclohexyl)-2-thia-6-azaspiro[3.4]octane 2,2-dioxide]"
59,–,26,"O=S1(=O)CC2(CCN([C@H]3CC[C@@H](c4cnc(C(F)(F)F)c(F)c4)CC3)C2)C1 [Compound 72B, 6-((1s,4s)-4-(5-fluoro-6-(trifluoromethyl)pyridin-3-yl)cyclohexyl)-2-thia-6-azaspiro[3.4]octane 2,2-dioxide]"
81,–,230,"O=S1(=O)CC2(CCN([C@H]3CC[C@H](c4cnc(C(F)(F)F)nc4)CC3)C2)C1 [Compound 94A, 6-((1r,4r)-4-(2-(Trifluoromethyl)pyrimidin-5-yl)cyclohexyl)-2-thia-6-azaspiro[3.4]octane 2,2-dioxide]"
250,–,115,"O=S1(=O)CC2(CCN([C@H]3CC[C@@H](c4cnc(C(F)(F)F)nc4)CC3)C2)C1 [Compound 94B, 6-((1s,4s)-4-(2-(trifluoromethyl)pyrimidin-5-yl)cyclohexyl)-2-thia-6-azaspiro[3.4]octane 2,2-dioxide]"
